As a reminder, the IC50 is the midpoint of a concentration-inhibition curve. For orientation: inhibition means the change of the read-out against control, counted positive when it falls.

The subject of series [1] is HT-29. In words: Induction of cell cycle arrest in human HT-29 cells assessed as decrease in accumulation at S phase at 1 to 100 nM after 24 hrs by propidium iodide staining based flow cytometric analysis. The format is functional. The conditions noted are these: dose 1-100 nM.
The test system of series [2] is HeLa. In words: Induction of cell cycle arrest in human HeLa cells assessed as increase in accumulation at G2/M phase after 24 hrs by propidium iodide staining based flow cytometric analysis. The format is functional. As to conditions: dose 1-100 nM. (In general: In flow cytometry, cells or beads pass a laser one at a time.)
Series [3] concerns SEM cells. Nature of the series: Antiproliferative activity against human SEM cells assessed as reduction in cell viability after 72 hrs by MTT assay. It is filed as functional, cell-based. On the technique in general: Tetrazolium dyes change colour on reduction, which living cells bring about.
Series [4] concerns HeLa. In words: cells. As to conditions: Homo sapiens, 72 h.
Description: Antiproliferative activity against human HeLa cells assessed as reduction in cell viability after 72 hrs by MTT assay
In series [5] the test system is PBL. Nature of the series: Cytotoxicity against PHA-induced human PBL cells assessed reduction in cell viability after 72 hrs by MTT assay. The format is cell-based.
The subject of series [6] is HL-60. Nature of the series: Antiproliferative activity against human HL-60 cells assessed as reduction in cell viability after 72 hrs by MTT assay. As to conditions: HL-60, 72 h. It is filed as functional, cell-based.
The species entered for series [7] is Bos taurus. Nature of the series: Displacement of [3H]colchicine from bovine brain tubulin at 5 uM by DEAE-cellulose filter method relative to control. The format is tissue-based. A general note: Loss of bound radioactivity is the signal in a displacement assay; it reports binding, not function.
In series [8] the test system is EO771. In words: Antitumour activity against mouse EO771 cells allografted in C57BL/6 mouse assessed as reduction in tumor volume at 5 mg/kg, ip. The format is functional, organism-based.
Series [9] deals with HT-29. Nature of the series: Induction of cell cycle arrest in human HT-29 cells assessed as decrease in accumulation at G1 phase at 1 to 100 nM after 24 hrs by propidium iodide staining based flow cytometric analysis. It is filed as functional. As to conditions: dose 1-100 nM.
The subject of series [10] is HeLa. Nature of the series: Induction of cell cycle arrest in human HeLa cells assessed as decrease in cdc25c protein expression at 50 nM after 24 to 48 hrs by Western blot analysis. The format is functional, cell-based. The conditions noted are these: time 24-48 hrs.
Series [11] can be described thus: Toxicity in C57BL/6 mouse allografted with mouse EO771 cells assessed as reduction in body weight at 15 mg/kg, ip. The format is organism-based. As to conditions: in vivo.
The test system of series [12] is CCRF-CEM. Nature of the series: Antiproliferative activity against human CCRF-CEM cells assessed as reduction in cell viability after 72 hrs by MTT assay. The format is functional, cell-based.
Series [13] has as its system HeLa. Nature of the series: Induction of apoptosis in human HeLa cells assessed as decrease in cleaved Bcl-2 protein expression at 50 nM after 24 to 48 hrs by Western blot analysis. The format is functional, cell-based. The conditions noted are these: time 24-48 hrs.
Series [14] concerns HeLa. Nature of the series: Induction of apoptosis in human HeLa cells assessed as decrease in cleaved Mcl-1 protein expression at 50 nM after 24 to 48 hrs by Western blot analysis. As to conditions: time 24-48 hrs. It is filed as functional, cell-based.
For series [15], the system named is PBL. Nature of the series: Cytotoxicity against human PBL cells assessed reduction in cell viability after 72 hrs by MTT assay. It is filed as cell-based.
Series [16] deals with HT-29. Nature of the series: cells. As to conditions: Homo sapiens, HT-29, 72 h.
The species entered for series [17] is Bos taurus. In words: Displacement of [3H]colchicine from bovine brain tubulin at 0.5 uM by DEAE-cellulose filter method relative to control. The format is tissue-based.
For series [18], the system named is HeLa. In words: Induction of cell cycle arrest in human HeLa cells assessed as decrease in accumulation at G1 phase at 1 to 100 nM after 24 hrs by propidium iodide staining based flow cytometric analysis. The conditions noted are these: dose 1-100 nM. It is filed as functional.
Series [19] relates to HeLa. In words: Induction of ROS generation in human HeLa cells assessed as increase in DCF fluorescence at 50 nM after 24 to 48 hrs by H2-DCFDA staining based flow cytometric analysis. The format is functional, cell-based. The conditions noted are these: time 24-48 hrs.
Series [20] has as its system HeLa. Nature of the series: Induction of apoptosis in human HeLa cells assessed as increase in cleaved PARP level at 25 nM after 24 hrs by Western blot analysis. The format is functional, cell-based.
In series [21] the test system is HeLa. In words: Induction of apoptosis in human HeLa cells assessed as decrease in cleaved XIAP protein expression at 50 nM after 24 to 48 hrs by Western blot analysis. The conditions noted are these: time 24-48 hrs. The format is functional, cell-based.
Series [22] concerns the target Cyclin-dependent kinase 1 (Homo sapiens) (UniProt P06493). Nature of the series: Inhibition of cdc2 phosphorylation at Y15 residues in human HeLa cells at 25 to 50 nM after 24 to 48 hrs by Western blot analysis. The format is cell-based. The conditions noted are these: dose 25-50 nM, time 24-48 hrs.
Series [23] can be described thus: Inhibition of bovine brain tubulin polymerization incubated for 15 mins followed by GTP addition and measured after 20 mins by spectrophotometric method. The format is tissue-based, Bos taurus.
Series [24] concerns A549. Nature of the series: cells. The conditions noted are these: Homo sapiens, A549, 72 h.
Description: Antiproliferative activity against human A549 cells assessed as reduction in cell viability after 72 hrs by MTT assay
Series [25] concerns HeLa. In words: Induction of cell cycle arrest in human HeLa cells assessed as decrease in accumulation at S phase at 1 to 100 nM after 24 hrs by propidium iodide staining based flow cytometric analysis. The format is functional. The conditions noted are these: dose 1-100 nM.
Series [26] concerns HeLa. In words: Induction of apoptosis in human HeLa cells at 50 nM after 24 to 48 hrs by annexinV-FITC/propidium iodide staining based flow cytometric analysis. The format is functional, cell-based. The conditions noted are these: time 24-48 hrs.
For series [27], the system named is EO771. In words: Antitumour activity against mouse EO771 cells allografted in ip dosed C57BL/6 mouse assessed as reduction in tumor mass. It is filed as functional, organism-based. As to conditions: dose lower 5.0 mg/kg, dose upper […].
Series [28] relates to HT-29. In words: Induction of cell cycle arrest in human HT-29 cells assessed as increase in accumulation at G2/M phase after 24 hrs by propidium iodide staining based flow cytometric analysis. The format is functional. As to conditions: dose 1-100 nM.
Series [29] concerns HeLa. In words: Induction of cell cycle arrest in human HeLa cells assessed as increase in cyclin B1 protein expression at 50 nM after 24 to 48 hrs by Western blot analysis. The format is functional, cell-based. The conditions noted are these: time 24-48 hrs.
The subject of series [30] is HT-1080. Nature of the series: Antiproliferative activity against human […] cells assessed as reduction in cell viability after 72 hrs by MTT assay. It is filed as functional, cell-based. The conditions noted are these: HT-1080, 72 h.
Series [31] relates to KB. Nature of the series: Antiproliferative activity against human KB cells assessed as reduction in cell viability after 72 hrs by MTT assay. The format is functional, cell-based.
In series [32] the test system is SGC-7901. In words: Antiproliferative activity against human SGC-7901 cells assessed as reduction in cell viability after 72 hrs by MTT assay. The format is functional, cell-based. As to conditions: SGC-7901, 72 h.
The target in series [33] is Tubulin. Nature of the series: Inhibition of tubulin (unknown origin) polymerization incubated for 90 mins by fluorescence-based assay. It is filed as protein-complex assay, Homo sapiens.

Calls of active or inactive are those of the source. The rule behind the calls is not given here. Where only a bound is given, the exact number is not on record here.

Cyclin-dependent kinase 1 (Homo sapiens), sequence (P06493 whole entry, looked up): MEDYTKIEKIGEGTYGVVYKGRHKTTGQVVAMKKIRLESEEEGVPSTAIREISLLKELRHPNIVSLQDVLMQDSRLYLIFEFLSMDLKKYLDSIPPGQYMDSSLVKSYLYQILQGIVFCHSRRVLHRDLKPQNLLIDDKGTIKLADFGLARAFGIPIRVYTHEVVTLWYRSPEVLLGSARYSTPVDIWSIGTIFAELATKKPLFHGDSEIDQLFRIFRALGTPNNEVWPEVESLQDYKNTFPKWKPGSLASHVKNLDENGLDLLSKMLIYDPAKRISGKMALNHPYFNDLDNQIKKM

In the case of `CCOc1ccc(-c2c[nH]cc2-c2cc(OC)c(OC)c(OC)c2)cc1F`, the result in series [1], in [9], in series [10], in series [13], in series [14] and in [18] was Active. In addition, the outcome in [19], in series [20], in [21], in series [25], in series [26] and in series [29] was Active. Also, the Activity entry in series [2] was “Dose-dependent effect”; in series [8], “Dose-dependent effect”; in series [11], “Non-Toxic”; in series [27], “Dose-dependent effect”; in series [28], “Dose-dependent effect”. Also, the IC50 was 1.7 nM in [3]; 26 nM in [4]; more than 10 µM in series [5]; 168 nM in series [6]; 7.5 nM in series [12]; more than 10 µM in series [15]. The IC50 in [16] came to 28 nM; in series [23], 660 nM; in series [24] it was 28 nM. Besides, the inhibition amounted to 93% in series [7] and 83% in series [17]. In [22], the inhibition entry is “Active”.
On to `COc1ccc(-n2cccc2-c2cc(OC)c(OC)c(OC)c2)cc1N`, for which the IC50 in [30] is 70 nM; in series [31], 45 nM; in series [32], 390 nM; in [33], 10 µM.
In the case of `CCOc1ccc(-c2c[nH]cc2-c2cc(OC)c(OC)c(OC)c2)cc1`, the IC50 in series [3] was 2.8 nM; in series [4], 37 nM; in series [6], 149 nM; in series [12], 16.6 nM; in series [16], 42 nM; in series [23] it was 820 nM. This compound also yielded a concentration for half-maximal inhibition (IC50) in series [24] of 81 nM. Further, the inhibition in series [7] came to 92%; in [17], 80%.
On to `CCOc1ccc(-c2cccn2-c2cc(OC)c(OC)c(OC)c2)cc1`, for which the IC50 in [3] was found to be 140 nM; in series [4] it was 390 nM; in [6], 360 nM; in series [12], 1910 nM; in [16] it was 390 nM; in series [23], 5600 nM. The compound further gave an IC50 in series [24] of 4520 nM. The compound also came in with an inhibition in series [7] of 63%.
As to `COc1ccc(-c2cccn2-c2cc(OC)c(OC)c(OC)c2)cc1F`, the IC50 is 200 nM in series [3]; 6120 nM in series [4]; 370 nM in series [6]; 1710 nM in [12]; 4120 nM in series [16]; 2600 nM in series [23]. Besides, in series [24], half-maximal inhibition (IC50) was put at 9010 nM. The inhibition in [7] turned out to be 64%.
In the case of `COc1cc(-c2c[nH]cc2-c2ccc(C)cc2)cc(OC)c1OC`, the IC50 came out at 17.2 nM in series [3]; 54 nM in [4]; 31.7 nM in [6]; 47 nM in series [12]; 130 nM in series [16]; 1200 nM in [23]. For the same compound, in series [24], half-maximal inhibition (IC50) required 98 nM. In addition, in series [7], the inhibition was found to be 83%.
`CCOc1ccc(-c2c[nH]cc2-c2cc(OC)c(OC)c(OC)c2)cc1Cl`: the IC50 in series [3] amounted to 39 nM; in series [4] it was 37 nM; in series [6], 144 nM; in series [12], 153 nM; in series [16], 64 nM; in series [23], 710 nM. Moreover, half-maximal inhibition in series [24] (IC50) was put at 79 nM. The inhibition is 90% in [7] and 68% in series [17].
Regarding `COc1cc(-c2cccn2-c2ccc3ccccc3c2)cc(OC)c1OC`, the IC50 in series [3] was 190 nM; in series [4] it was 430 nM; in [6], 400 nM; in [12], 1410 nM; in series [16], 840 nM; in series [23], 1600 nM. Besides, in [24], 5520 nM corresponded to half-maximal inhibition (IC50). For the same compound, the inhibition in series [7] came to 70%.
Turning to `CCOc1ccc(-n2cccc2-c2cc(OC)c(OC)c(OC)c2)cc1`, the IC50 stood at 270 nM in series [3]; 3420 nM in series [4]; 430 nM in series [6]; 3020 nM in series [12]; 5520 nM in series [16]; 2300 nM in series [23]. In series [24], this compound registered an IC50 of more than 10000 nM. The compound further showed an inhibition in [7] of 57%.
